Activity calls are given as the source filed them.
How the values were obtained:
[1] = ATP-based viability loss in HEK293T cells – cell-based, CellTiter-Glo luminescence, cherry-picked samples, set 4, cytotoxicity control, dose response (AID 743441); format: functional; details: HEK293
[2] = decrease of insulin promoter-GFP reporter – imaging, high-content screening, mouse beta cells (AID 1628); format: functional; details: MIN6
[3] = MIN6 cell viability loss – mouse insulinoma, cytotoxicity control, dose response (AID 2122); format: functional;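 further: confirmatory high-throughput counterscreen run to flag cytotoxic compounds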
[4] = microbe, parasite or virus in culture; format: functional; details: Mycobacterium tuberculosis
[5] = general mammalian cell viability loss – inhibitor set, cherry-pick, set 2, cytotoxicity control for miR-122 modulator project, dose response (AID 720697); format: functional, cell-based
[6] = reduction of Shn3 3'UTR-driven luciferase in osteoblasts – cell-based, Clone20 osteoblasts, firefly luciferase, cherry-picked, dose response (AID 624132); format: functional;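 further: firefly luciferase luminescence from reporter carrying the Shn3 3'UTR in osteoblasts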
[7] = loss of viability in HepG2 cells – cell-based, CellTiter-Glo, cherry-picked, cytotoxicity control for Shn3 inhibitor project, dose response (AID 624134); format: functional
[8] = non-specific 3'UTR reporter inhibition in Clone20-Shn3RL – cell-based, Renilla luciferase, cherry-picked, counter-screen for Shn3 inhibitor project, dose response (AID 624133); format: functional
[9] = viability loss in human hepatoma cells – cell-based, CellTiter-Glo luminescence, cherry-pick, set 2, cytotoxicity control, dose response (AID 743395); format: functional
[10] = Shn3 3'UTR reporter signal decrease – cell-based, Clone20 osteoblasts, firefly luciferase, cherry-pick, set 2, Schnurri-3 inhibitor project, dose response (AID 720490); format: functional;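 further: actives lower the luminescence signal as inhibitors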
Aminopeptidase N = target: T1, Aminopeptidase N (Plasmodium falciparum FcB1/Columbia, UniProt O96935); experiment: malaria alanyl aminopeptidase activity blockers – biochemical, fluorogenic H-Leu-NHMec substrate, 1536-well (AID 1445); parameters: species or system Plasmodium falciparum 3D7, 3D7
T1 sequence (O96935 whole entry): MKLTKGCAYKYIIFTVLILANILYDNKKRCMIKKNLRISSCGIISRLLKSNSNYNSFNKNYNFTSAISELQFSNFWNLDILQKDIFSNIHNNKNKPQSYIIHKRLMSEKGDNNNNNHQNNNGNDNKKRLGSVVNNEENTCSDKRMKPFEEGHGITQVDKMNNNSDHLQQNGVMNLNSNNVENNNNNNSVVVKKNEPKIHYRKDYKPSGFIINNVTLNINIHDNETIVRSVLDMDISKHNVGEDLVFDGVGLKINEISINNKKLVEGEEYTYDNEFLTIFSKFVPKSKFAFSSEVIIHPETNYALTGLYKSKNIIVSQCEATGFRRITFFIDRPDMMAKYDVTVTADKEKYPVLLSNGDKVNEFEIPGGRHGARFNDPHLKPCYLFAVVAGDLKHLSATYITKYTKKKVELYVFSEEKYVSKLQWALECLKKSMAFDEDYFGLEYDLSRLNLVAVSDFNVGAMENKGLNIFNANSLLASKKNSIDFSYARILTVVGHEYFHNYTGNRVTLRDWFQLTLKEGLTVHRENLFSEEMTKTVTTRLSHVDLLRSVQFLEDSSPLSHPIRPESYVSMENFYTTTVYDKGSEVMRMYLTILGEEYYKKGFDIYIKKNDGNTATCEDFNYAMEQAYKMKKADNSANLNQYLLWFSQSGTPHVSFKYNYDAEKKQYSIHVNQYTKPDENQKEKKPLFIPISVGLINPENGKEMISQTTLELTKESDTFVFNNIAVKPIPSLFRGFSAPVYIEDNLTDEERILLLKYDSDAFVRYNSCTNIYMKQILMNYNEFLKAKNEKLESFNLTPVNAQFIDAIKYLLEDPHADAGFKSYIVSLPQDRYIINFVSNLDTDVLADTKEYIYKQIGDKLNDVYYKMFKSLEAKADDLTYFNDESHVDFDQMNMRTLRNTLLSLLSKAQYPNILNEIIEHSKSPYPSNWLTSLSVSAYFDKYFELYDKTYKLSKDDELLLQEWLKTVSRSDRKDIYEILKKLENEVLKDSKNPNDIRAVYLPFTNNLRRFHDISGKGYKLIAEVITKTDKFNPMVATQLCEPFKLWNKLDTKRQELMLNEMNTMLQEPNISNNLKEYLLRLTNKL

[11] = target: Endoplasmic reticulum aminopeptidase 1 (Homo sapiens, UniProt Q9NZ08); experiment: inhibition of human ERAP1 enzyme activity – biochemical, cherry-pick, set 2, plate reader, dose response (AID 743314)
[12] = target: Metabotropic glutamate receptor 5 (Rattus norvegicus, UniProt P31424); experiment: Identification of a glycine sulfonamide based non-MPEP site positive allosteric potentiator (PAM) of mGlu5 (calcium_assay).; format: functional
Paired box protein Pax-8 = Paired box protein Pax-8 (Homo sapiens, UniProt Q06710); experiment: PAX8 transcriptional activity inhibition in RMG-I – RMG-I cells, luciferase, cherry-pick, dose response (AID 687027); format: functional, cell-based;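 further: luciferase reporter driven by Pax8 target thyroperoxidase promoter measured by SteadyGlo luminescence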
[13] = toxicity toward immortalized ovarian surface epithelium – cell-based, plate reader, dry powder samples, cytotoxicity control for PAX8 inhibitor project, dose response (AID 743045); format: functional
[14] = A2780 cell killing – plate reader, dry powder samples, cytotoxicity control, dose response (AID 743046); format: functional, cell-based
[15] = OVCAR-3 cell viability loss – plate reader, dry powder samples, PAX8 inhibitor project, dose response (AID 743044); format: functional, cell-based
[16] = IGROV1 cell killing – plate reader, dry powder samples, PAX8 inhibitor project, dose response (AID 743043); format: functional, cell-based; details: IGROV-1
[17] = general cell-killing toxicity readout – plate reader, dry powder samples, cytotoxicity control for PAX8 inhibitor project, dose response (AID 743021); format: functional, cell-based
[18] = OVCAR8 cell viability loss – plate reader, dry powder samples, PAX8 project, dose response (AID 743197); format: functional, cell-based; details: OVCAR-8
[19] = P. falciparum Dd2 growth inhibitors, dose response, SYBR Green, cherry-picked samples (AID 1159567); format: functional, cell-based
[20] = toxicity to human hepatoma HepG2 cells – cell-based, cherry-picked samples, cytotoxicity control, dose response (AID 1159577); format: functional
HeLa = experiment: viability loss in HeLa cells – cell-based, ATP luminescence, cherry-pick samples, cytotoxicity control, dose response (AID 687004); format: functional; details: Homo sapiens
[21] = inhibitors acting on PAX2 in cells – cell-based, plate reader, dry powder samples, selectivity assay for PAX8 inhibitor project, dose response (AID 743048); format: functional;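 further: HEK293 cells carrying a WT1 promoter luciferase reporter driven by expressed Pax2; potency is for inhibition of Pax2 driven reporter signal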
[22] = COV362 cell viability loss – plate reader, dry powder, SA12, cytotoxicity control for PAX8 inhibitor project, dose response (AID 743144); format: functional, cell-based
[23] = PAX5 cellular inhibition readout – cell-based, plate reader, dry powder samples, selectivity assay for PAX8 inhibitor project, dose response (AID 743047); format: functional;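 further: HEK293 cells carrying a Pax5 driven CD19 promoter luciferase reporter; potency of inhibitors that lower reporter luminescence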
[24] = COV434 cell viability loss – plate reader, dry powder, SA7, cytotoxicity control for PAX8 inhibitor project, dose response (AID 743145); format: functional, cell-based
[25] = OV-90 cell viability loss – plate reader, dry powder, SA8, PAX8 inhibitor project, dose response (AID 743149); format: functional, cell-based
[26] = PAX8-dependent cell viability loss – plate reader, dry powder, dose response (AID 743049); format: functional, cell-based
[27] = target: Delta-type opioid receptor (Homo sapiens, UniProt P41143); experiment: Late-stage results from the probe development effort to identify antagonists of OPRK1: fluorescence-based cell-based dose response OPRD1 counterscreen.; format: functional
Mu-type opioid receptor = Mu-type opioid receptor (Homo sapiens, UniProt P35372); experiment: Late-stage results from the probe development effort to identify antagonists of OPRK1: luminescence-based cell-based dose response OPRM1 counterscreen.; format: functional
INS1 = experiment: INS-1E survival protection against cytokine death – cell-based, luminescence, retest, dose response (AID 449756); format: functional; details: Rattus norvegicus;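 further: cell death triggered by IL-1 beta plus TNF-alpha plus IFN-gamma mixture; protective hits raise ATP signal compared with cytokine alone wells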
[28] = activation of miR-122 Renilla sensor silencing – cell-based, Huh7 psiCHECK-miR122, Renilla luciferase, cherry-picked, dose response (AID 651956); format: functional;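 further: huh7 hepatoma cells stably carrying a psiCHECK-2 miR-122 sensor plasmid; renilla luciferase signal reporting endogenous miR-122 activity after 48 h compound exposure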
[29] = general mammalian cell viability loss – activator set, cherry-pick, cytotoxicity control for miR-122 modulator project, dose response (AID 720690); format: functional, cell-based;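 further: HEK293T human cells scored for general mammalian cytotoxicity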
[30] = growth inhibition of yeast DHODH-expressing 3D7 parasites – SYBR Green, dry powder samples, dose response (AID 1159570); format: functional, cell-based;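 further: parasite growth measured after 72 hours of compound exposure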
[31] = toxicity to human HepG2 hepatoma cells – cell-based, plate reader, dry powder samples, cytotoxicity control, dose response (AID 1159569); format: functional;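 further: inhibitor potency with signal falling toward the positive control level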
[32] = Dd2 parasite growth inhibition in erythrocytes – SYBR Green, dry powder samples, set 9, dose response (AID 1159568); format: functional, cell-based
[33] = Dd2 malaria parasite growth inhibition potency – SYBR Green, dry powder samples, dose response (AID 1159566); format: functional, cell-based;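 further: potency for growth inhibition with lower SYBR green DNA signal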
[34] = growth inhibition of PfATP4-mutant resistant parasites – NITD609-resistant line, SYBR Green, dry powder, dose response (AID 1159571); format: functional, cell-based;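 further: parasites synchronized at ring stage by sorbitol before testing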

Sequence of Paired box protein Pax-8 (Q06710 whole entry): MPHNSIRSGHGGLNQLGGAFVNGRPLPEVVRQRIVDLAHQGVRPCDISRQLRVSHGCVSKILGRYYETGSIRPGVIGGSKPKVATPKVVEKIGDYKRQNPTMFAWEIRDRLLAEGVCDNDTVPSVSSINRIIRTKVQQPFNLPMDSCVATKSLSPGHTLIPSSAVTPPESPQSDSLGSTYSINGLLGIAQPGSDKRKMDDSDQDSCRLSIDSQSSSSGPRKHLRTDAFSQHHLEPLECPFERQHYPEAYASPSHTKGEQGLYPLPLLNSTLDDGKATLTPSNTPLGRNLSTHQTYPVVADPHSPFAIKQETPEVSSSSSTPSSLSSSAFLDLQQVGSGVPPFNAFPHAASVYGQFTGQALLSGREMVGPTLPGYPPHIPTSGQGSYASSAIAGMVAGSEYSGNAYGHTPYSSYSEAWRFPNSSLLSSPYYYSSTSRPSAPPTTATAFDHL
Sequence of Delta-type opioid receptor (P41143 whole entry): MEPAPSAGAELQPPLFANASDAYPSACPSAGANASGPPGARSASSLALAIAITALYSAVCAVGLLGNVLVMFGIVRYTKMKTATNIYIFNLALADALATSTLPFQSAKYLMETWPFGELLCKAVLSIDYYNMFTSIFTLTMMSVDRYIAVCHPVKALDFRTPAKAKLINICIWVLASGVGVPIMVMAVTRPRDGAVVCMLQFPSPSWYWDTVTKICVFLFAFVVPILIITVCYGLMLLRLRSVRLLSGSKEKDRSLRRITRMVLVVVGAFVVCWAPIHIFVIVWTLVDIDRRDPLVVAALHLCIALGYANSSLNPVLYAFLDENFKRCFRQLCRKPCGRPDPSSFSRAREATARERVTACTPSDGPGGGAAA
Sequence of Metabotropic glutamate receptor 5 (P31424 whole entry): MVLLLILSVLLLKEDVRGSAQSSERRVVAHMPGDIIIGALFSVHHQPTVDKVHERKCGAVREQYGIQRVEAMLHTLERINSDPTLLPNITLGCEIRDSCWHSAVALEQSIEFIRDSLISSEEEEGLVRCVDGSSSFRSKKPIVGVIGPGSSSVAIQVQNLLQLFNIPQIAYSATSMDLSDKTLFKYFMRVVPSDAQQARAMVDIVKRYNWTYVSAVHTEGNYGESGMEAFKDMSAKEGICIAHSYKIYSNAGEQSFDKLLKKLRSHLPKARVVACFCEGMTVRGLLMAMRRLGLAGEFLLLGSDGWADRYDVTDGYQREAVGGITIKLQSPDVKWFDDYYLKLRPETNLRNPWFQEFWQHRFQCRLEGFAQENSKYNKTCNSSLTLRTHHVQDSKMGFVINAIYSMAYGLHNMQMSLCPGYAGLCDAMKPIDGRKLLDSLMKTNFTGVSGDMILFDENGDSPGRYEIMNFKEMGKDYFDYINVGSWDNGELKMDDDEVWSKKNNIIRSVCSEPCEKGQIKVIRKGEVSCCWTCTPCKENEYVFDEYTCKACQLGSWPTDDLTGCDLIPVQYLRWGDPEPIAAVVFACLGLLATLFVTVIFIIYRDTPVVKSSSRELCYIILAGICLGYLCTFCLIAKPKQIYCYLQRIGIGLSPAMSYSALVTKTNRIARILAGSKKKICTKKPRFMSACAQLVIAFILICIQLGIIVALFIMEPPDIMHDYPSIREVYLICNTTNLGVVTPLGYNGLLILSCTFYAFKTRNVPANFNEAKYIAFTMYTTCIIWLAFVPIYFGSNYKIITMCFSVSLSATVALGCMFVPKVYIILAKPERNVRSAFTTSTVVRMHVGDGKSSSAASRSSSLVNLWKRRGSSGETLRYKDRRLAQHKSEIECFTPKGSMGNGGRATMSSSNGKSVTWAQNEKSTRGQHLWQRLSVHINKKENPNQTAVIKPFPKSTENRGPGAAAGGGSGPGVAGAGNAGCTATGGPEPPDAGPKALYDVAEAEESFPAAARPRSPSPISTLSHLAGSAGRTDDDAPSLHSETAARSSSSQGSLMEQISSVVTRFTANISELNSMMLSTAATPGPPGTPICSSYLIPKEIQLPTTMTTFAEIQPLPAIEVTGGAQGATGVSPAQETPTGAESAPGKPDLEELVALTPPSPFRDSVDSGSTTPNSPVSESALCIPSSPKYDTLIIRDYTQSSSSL
Sequence of Mu-type opioid receptor (P35372 whole entry): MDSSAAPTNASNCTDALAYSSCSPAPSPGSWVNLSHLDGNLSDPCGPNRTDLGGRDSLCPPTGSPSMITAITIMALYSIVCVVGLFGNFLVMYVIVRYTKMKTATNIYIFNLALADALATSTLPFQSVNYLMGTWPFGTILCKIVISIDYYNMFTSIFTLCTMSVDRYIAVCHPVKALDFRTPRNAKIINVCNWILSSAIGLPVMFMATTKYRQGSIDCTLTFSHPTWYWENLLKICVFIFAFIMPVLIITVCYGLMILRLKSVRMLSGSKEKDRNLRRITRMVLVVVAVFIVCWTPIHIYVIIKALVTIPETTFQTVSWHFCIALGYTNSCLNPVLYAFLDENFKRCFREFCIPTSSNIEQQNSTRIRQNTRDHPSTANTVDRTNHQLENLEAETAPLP
Sequence of Endoplasmic reticulum aminopeptidase 1 (Q9NZ08 whole entry): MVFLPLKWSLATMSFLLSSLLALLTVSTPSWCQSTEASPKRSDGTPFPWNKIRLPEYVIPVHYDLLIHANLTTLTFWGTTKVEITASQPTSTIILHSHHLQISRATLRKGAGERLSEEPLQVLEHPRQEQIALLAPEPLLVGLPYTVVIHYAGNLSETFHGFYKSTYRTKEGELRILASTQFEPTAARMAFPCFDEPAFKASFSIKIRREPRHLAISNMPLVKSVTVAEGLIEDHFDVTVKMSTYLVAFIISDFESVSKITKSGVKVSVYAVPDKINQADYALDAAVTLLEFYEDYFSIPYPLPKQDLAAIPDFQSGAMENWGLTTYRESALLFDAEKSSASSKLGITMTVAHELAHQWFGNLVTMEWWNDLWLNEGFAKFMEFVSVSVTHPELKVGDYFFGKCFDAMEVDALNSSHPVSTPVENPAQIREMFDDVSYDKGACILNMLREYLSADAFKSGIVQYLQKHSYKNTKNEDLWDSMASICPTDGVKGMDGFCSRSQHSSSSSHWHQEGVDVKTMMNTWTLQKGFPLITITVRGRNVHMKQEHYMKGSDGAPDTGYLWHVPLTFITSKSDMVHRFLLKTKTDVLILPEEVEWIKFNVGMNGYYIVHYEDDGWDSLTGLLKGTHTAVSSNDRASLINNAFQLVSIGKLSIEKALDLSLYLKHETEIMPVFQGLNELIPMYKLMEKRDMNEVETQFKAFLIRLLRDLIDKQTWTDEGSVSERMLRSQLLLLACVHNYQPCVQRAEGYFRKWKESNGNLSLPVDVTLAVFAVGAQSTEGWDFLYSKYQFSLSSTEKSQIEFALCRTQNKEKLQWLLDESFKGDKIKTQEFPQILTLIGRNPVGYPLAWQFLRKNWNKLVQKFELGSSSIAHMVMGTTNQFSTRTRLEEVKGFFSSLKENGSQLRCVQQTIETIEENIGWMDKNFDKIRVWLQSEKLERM

Cc1c(C(=O)O)sc2nc(CSc3ncc(C(F)(F)F)cc3Cl)nc(O)c12
AC50 [1]: > 52 µM (inactive)

COc1ccc(-c2oc3ncnc(NCCCN4CCOCC4)c3c2-c2ccc(OC)cc2)cc1
IC50 [2]: 0.898 µM (active)
IC50 [3]: > 16 µM (inactive)
CC50 [4]: 24.8 µM (active)
AC50 [5]: 1.51 µM (active)

CCOC(=O)c1oc2ccc(S(=O)(=O)n3nc(-c4ccccc4)cc3N)cc2c1C
IC50 [2]: 1.08 µM (active)
IC50 [3]: 1.01 µM (active)
AC50 [6]: 0.854 µM (active)
AC50 [7]: 56.8 µM (active)
AC50 [8]: 7.82 µM (active)
AbsAC35_uM [9]: 31.08 µM

CCOC(=O)N1CCN(c2ccc(S(=O)(=O)N(Cc3ccccc3)Cc3ccccc3)cn2)CC1
AC50 [6]: 2.59 µM (active)
AC50 [7]: 45 µM (active)
AC50 [8]: 34.3 µM (active)
AC50 [10]: 2.09 µM (active)

CCc1c(C)c2cc(Cl)c(O)c(CN(CC)CC)c2oc1=O
IC50 (Aminopeptidase N): 34.6 µM (active)
AC50 [11]: 6.85 µM (active)

CS(=O)(=O)N1c2ccccc2CCC1C(=O)Nc1ccccn1 (configuration not stated)
EC50 [12]: 0.944 µM

COc1ccc(C#Cc2ccc([C@@H]3[C@H](CO)N4CCCCN(C(=O)Nc5cccc(F)c5)C[C@@H]34)cc2)cc1
AC50 (Paired box protein Pax-8): 9.89 µM (active)
AC50 [13]: 16.3 µM (active)
AC50 [14]: 15.3 µM (active)
AC50 [15]: 10 µM (active)
AC50 [16]: 10.5 µM (active)
AC50 [17]: 40.6 µM (active)
AC50 [18]: 18.1 µM (active)
AC50 [19]: 1.43 µM (active)
AC50 [20]: 6.45 µM (active)

COc1cccc(-c2cn(CC[C@@H]3CC[C@@H](NC(C)=O)[C@H](CO)O3)nn2)c1
AC50 (HeLa): > 52 µM (inactive)

CCCC#Cc1ccc([C@@H]2[C@@H](C#N)N(C(=O)C3CCCCC3)[C@H]2CO)cc1
AC50 (Paired box protein Pax-8): 6.02 µM (active)
AC50 [21]: 14.1 µM (active)
AC50 [22]: 41.8 µM (active)
AC50 [23]: 18.3 µM (active)
AC50 [24]: 34.5 µM (active)
AC50 [25]: 36 µM (active)
AC50 [18]: 51 µM (active)
AC50 [26]: 31 µM (active)

COC(=O)c1cc(Br)cnc1N1CCC(NC2CCC(C)CC2)CC1 (configuration not stated)
IC50 [27]: 18 µM (inactive)
IC50 (Mu-type opioid receptor): 8.6 µM (active)

Cc1cc(C(=O)N/N=C/c2cc(Br)ccc2OC(=O)c2ccccc2)[nH]n1
AC50 (INS1): 1.91 µM (active)
AC50 [28]: 43.1 µM (active)
AC50 [29]: 16.6 µM (active)

COc1ccc(C#Cc2ccc3c(c2)O[C@@H](CN(C)C(=O)Nc2cccc(OC)c2)[C@@H](C)CN([C@@H](C)CO)S3(=O)=O)cc1
AC50 [30]: 0.603 µM (active)
AC50 [31]: > 100 µM (inactive)
AC50 [32]: 0.399 µM (active)
AC50 [19]: 1.09 µM (active)
AC50 [33]: 0.405 µM (active)
AC50 [34]: 0.556 µM (active)

From ChEMBL document CHEMBL1201862, “PubChem BioAssay data set” (2004)
